Test results from US20240327415A1, “Multicomponent Complexes, Including Salts, Crystalline Forms, and Hydrates and Solvates of ENT1 Inhibitors” (iTeos Belgium SA, priority 2023, published 2024).

Assays:
Assay type in all cases: physicochemical
[1] = Variable Humidity X-Ray Powder Diffraction (VH-XRPD)
Method: (§1) In the examples below, VH-XRPD analysis was carried out on a Philips X'Pert Pro Multipurpose diffractometer equipped with a humidity chamber. The samples were scanned between 4 and 36° 2θ using Cu K radiation (α1λ=1.54060 Å; α2=1.54443 Å; β=1.39225 Å; α1: α2 ratio=0.5; most, if not all, B radiation is removed from the beam using an X-ray mirror) running in Bragg-Brentano geometry (step size 0.008° 2θ) using 40 kV/40 mA generator settings. Measurements were carried out from 2-90% RH, with a final measurement taken at 40% RH.
as §1, with “VH-XRPD” for “In the examples below, VH-XRPD”, “radiation (α1 λ=1.54060” for “radiation (α1λ=1.54060”, “Å; α1:α2” for “Å; α1: α2”, “all, β” for “all, B”, “from 6-90% relative humidity (RH),” for “from 2-90% RH,”

[2] = hydration mapping studies (slurries at different water activities, Example 17)
Method: Example 17—Hydration Mapping Studies-Crystalline Form 2 Compound 1 di(hydrogen sulfate) trihydrate, Crystalline Form 3 Compound 1 di(hydrogen sulfate), and Blend: The effects of different water activities on crystalline Form 2 Compound 1 di(hydrogen sulfate) trihydrate, crystalline Form 3 Compound 1 di(hydrogen sulfate) and a blend of the two were investigated. The “blend” was prepared by mixing crystalline Form 2 Compound 1 di(hydrogen sulfate) trihydrate and crystalline Form 3 Compound 1 di(hydrogen sulfate) in a 1:1 ratio. To the vials containing the required solid material, the appropriate solvent system was added to form slurries. The slurry samples were stirred at the required temperatures during and after the solvent addition. Where dissolution was observed post-solvent addition, additional solid was added to re-saturate the sample. After stirring at the required temperature for 48 hours, the residual solids left in the vials were analyzed by XRPD to assess the solid forms. The analyzed samples were then dried on the XRPD plate under reduced pressure at 40° C. for 24 hr. The dried samples were analyzed by XRPD.

[3] = Variable Temperature X-Ray Powder Diffraction (VT-XRPD); design: key: Crystalline Form 3 di(hydrogen sulfate); Crystalline Form 9 di(hydrogen sulfate); Melt/Amorphous
Method: as §1, with “VT-XRPD” for “VH-XRPD”, “temperature” for “humidity”, “(α1 λ=1.54060” for “(α1λ=1.54060”, “ambient temperature to an upper limit of 250° C.,” for “2-90% RH,”, “after cooling.” for “at 40% RH.”
VT-XRPD analysis was carried out on a Philips X'Pert Pro Multipurpose diffractometer equipped with a temperature chamber. The samples were scanned between 4 and 36° 2θ using Cu K radiation (α1 λ=1.54060 Å; α2=1.54443 Å; β2=1.39225 Å; α1:α2 ratio=0.5; most, if not all, β radiation is removed from the beam using an X-ray mirror) running in Bragg-Brentano geometry (step size 0.008° 2θ) using 40 kV/40 mA generator settings. Measurements were carried out from ambient temperature to an upper limit of 250° C., with a final measurement taken after cooling.

[4] = pH solubility studies in buffers and biorelevant media (Example 16); design: key: A: amorphous; Crystalline Form 10 mono(hydrogen sulfate); conditions: pH 6.8 (Phosphate), 24 h
Method: Example 16—pH Solubility Studies—(1) Crystalline Form 2 Compound 1 di(hydrogen sulfate) trihydrate, (2) Crystalline Form 3 Compound 1 di(hydrogen sulfate), and (3) Crystalline Form 4 Compound 1 mono(hydrogen sulfate): pH solubility studies were carried out on the prepared crystalline Form 2 Compound 1 di(hydrogen sulfate) trihydrate, crystalline Form 3 Compound 1 di(hydrogen sulfate) and crystalline Form 4 Compound 1 mono(hydrogen sulfate) in the following media: (1) HCl/KCl, pH 1.2; (2) Acetate, pH 4.5; (3) Phosphate, pH 6.8; (4) FaSSIF; (5) FeSSIF; and (6) FaSSGF. Slurries of the hydrogen sulfate forms were prepared in the appropriate medium and stirred at 25° C. For the experiments in the buffer media, the pH of the slurry samples was measured and adjusted as required after 1 hour and 23 hours of the slurrying. Additional solid was added where dissolution was observed post-adjustment. The pH of the samples in the biorelevant media was measured at the 23 hour timepoint. No pH adjustment was made for the biorelevant media. After a total of 24 hours of slurrying, the mother liquors were extracted via centrifugation, and the concentrations and solution purity were determined by HPLC. The residual solids were isolated and analyzed by XRPD and are shown in FIG. 77, FIG. 78, and FIG. 79. The assessment was repeated for some of the samples, where required.

[5] = second Heating, 150° C., hold 30 min
[6] = second Heating, 160° C., hold 30 min

**Q.** Which “VH-XRPD: Conv. To Form 6→Form 2 at” value [1] does the source give for COc1cc(C(=O)O[C@@H]2CCCOc3cc(cc(OC)c3OC)C(=O)NCCCN3CCCN(CC2)CC3)cc(OC)c1OC.O=S(=O)(O)O.O=S(=O)(O)O [crystalline Form 3 Compound 1 di(hydrogen sulfate)] here?
**A.** Form 2 at ≥70% RH

**Q.** What about the “VH-XRPD: input form retained at” value [1] of the same molecule?
**A.** at 10-60% RH

**Q.** And the “relative humidity range in which peaks of crystalline Form 6 Compound 1 di(hydrogen sulfate) are observed in addition” value [1]?
**A.** 70-80 % RH

**Q.** And the “relative humidity range in which the form is retained (VH-XRPD)” value [1]?
**A.** 2-60 % RH

**Q.** And the “relative humidity at which conversion to crystalline Form 2 Compound 1 di(hydrogen sulfate) trihydrate is observed” value ([1]; Form 3: after extended exposure)?
**A.** ≥ 80 % RH

**Q.** And the “solid form by XRPD after slurrying” value ([2]; solvent systems with aw=0.1, 48 hours)?
**A.** retained

**Q.** And the “solid form by XRPD after slurrying” value ([2]; solvent systems with aw=0.9, 48 hours)?
**A.** Conversion to crystalline Form 2 Compound 1 di(hydrogen sulfate) trihydrate

**Q.** What about the “VT-XRPD Results” value ([3]; Cooling, 30° C., hold 10 min) of the same molecule?
**A.** 9

**Q.** What about the “VT-XRPD Results” value ([3]; Heating, 70° C., hold 30 min) of the same molecule?
**A.** 9

**Q.** And the “VT-XRPD Results” value ([3]; Heating, 90° C., hold 30 min)?
**A.** 9

**Q.** And the “VT-XRPD Results” value ([3]; Heating, 105° C., hold 30 min)?
**A.** 9

**Q.** And the “VT-XRPD Results” value ([3]; second Heating, 120° C., hold 30 min)?
**A.** 9

**Q.** And the “VT-XRPD Results” value ([3]; second Heating, 130° C., hold 30 min)?
**A.** 9

**Q.** And the “VT-XRPD Results” value ([3]; second Heating, 140° C., hold 30 min)?
**A.** 9

**Q.** And the “VT-XRPD Results” value [3, 5]?
**A.** 9

**Q.** What about the “VT-XRPD Results” value [3, 6] of the same molecule?
**A.** 9 and Melt

**Q.** And the “XRPD of residual solids” value ([4]; attempt 1, 25° C.)?
**A.** A

**Q.** What about the “XRPD of residual solids” value ([4]; attempt 2, 25° C.) of the same molecule?
**A.** A

**Q.** With COc1cc(C(=O)O[C@@H]2CCCOc3cc(cc(OC)c3OC)C(=O)NCCCN3CCCN(CC2)CC3)cc(OC)c1OC.O=S(=O)(O)O as the molecule, how does the “XRPD of residual solids” value ([4]; 25° C.) read?
**A.** A

**Q.** With CCCN1CCNCCCNC(=O)c2cc(OC)c(OC)c(c2)OCCC[C@@H](OC(=O)c2cc(OC)c(OC)c(OC)c2)CC1 as the molecule, how does the “VH-XRPD: Conv. To Form 5 at” value [1] read?
**A.** 5 at 6% RH

**Q.** What about the “VH-XRPD: input form retained at” value [1] of the same molecule?
**A.** at 10-80% RH

**Q.** And the “VH-XRPD Results” value ([1]; Desorption, 6% RH, hold 60 min)?
**A.** 5, PC

**Q.** And the “solid form by XRPD after slurrying” value ([2]; acetonitrile:water (aw=0.1) at 50° C., 48 hours)?
**A.** conversion to crystalline Form 6 Compound 1 di(hydrogen sulfate)

**Q.** What about the “solid form by XRPD after slurrying” value ([2]; the rest of the samples, 48 hours) of the same molecule?
**A.** consistent with crystalline Form 2 Compound 1 di(hydrogen sulfate) trihydrate

**Q.** What about the “VT-XRPD Results” value [3, 5] of the same molecule?
**A.** Melt

**Q.** And the “VT-XRPD Results” value [3, 6]?
**A.** Melt
